Data as given in patent US20260234116A1, “CYTOTOXIC EPOXYKETONE COMPOUNDS, PRECURSORS, COMPOSITIONS, AND METHODS OF USE” (Memorial Sloan-Kettering Cancer Center, priority 2023, published 2026).
Like-named read-outs stand apart in the source and are kept apart here.

What was measured:
[1] = tested on: EL4 lymphoma cells; conditions: reported (prepared by total synthesis); cited from earlier work
[2] = tested on: Raji B-cell lymphoma; test: Cytotoxicity of epoxyketones, CellTitre-Glo, 48 h; assay type: cell-based; conditions: Homo sapiens
Experimental: (§1) Cytotoxicity Assays. Cancer cell lines (ATCC: U266 multiple myeloma, EL4 mouse lymphoma, Raji B-cell lymphoma) were cultured in Roswell Park Memorial Institute (RPMI) medium supplemented with 10% fetal bovine serum (FBS), 2 mM L-glutamine, 100 IU/mL penicillin, 100 μg/mL nonessential amino acids, 1 mM sodium pyruvate, and 57 μM β-mercaptoethanol. Cells (90 μL) were seeded in the inner 60 wells of an opaque-wall, clear flat-bottom 96-well plate (Corning/Falcon, 351177) at 20,000 cells per well. The outer perimeter wells were filled with 200 μL PBS to reduce evaporation in the central 60 wells. Epoxyketones 12 (20 mM in DMSO) were diluted in RPMI media to 1 mM (5% DMSO final concentration). Each epoxyketone was then diluted log-fold into 10 concentrations with 5% DMSO in RPMI. Each epoxyketone solution (10 μL) was added to the cells for a 0.5% DMSO final concentration across all wells and final epoxyketone concentrations of 100-0.005 μM. Negative control wells were treated with 10 μL of 5% DMSO in RPMI. Cells were incubated with compounds for 48 h, then cytotoxicity was measured with the CellTitre-Glo assay (Promega G9241).

[3] = tested on: U266 multiple myeloma; test: Cytotoxicity of epoxyketones, CellTitre-Glo, 48 h; assay type: cell-based; conditions: Homo sapiens, U-266, U266, 48 h
Experimental: as §1

[4] = tested on: EL4 mouse lymphoma; test: Cytotoxicity of epoxyketones, CellTitre-Glo, 48 h; assay type: cell-based; conditions: EL4, 48 h
Experimental: as §1

[5] = tested on: chymotrypsin-like activity of the proteasome, Jurkat cell lysates; test: Proteasome inhibition assay (abcam Proteasome Activity Assay Kit); assay type: biochemical; conditions: 10 μM concentration, 1 h at 37° C.
Experimental: Epoxyketones 12 were analyzed for proteasome inhibition using a Proteasome Activity Assay Kit (abcam ab107921). The protocol was followed as described by the manufacturer, except that the proteasome sample supplied in the kit was diluted by 10-fold more than indicated in the manual to increase the number of samples that could be analyzed per kit. Thus, the supplied proteasome sample was resuspended in 100 μL ddH2O, then further diluted with 900 μL of the supplied assay buffer. The supplied proteasome inhibitor, MG-132 (benzyl [(2S)-4-methyl-1-{[(2S)-4-methyl-1-{[(2S)-4-methyl-1-oxopentan-2-yl]amino}-1-oxopentan-2-yl]amino}-1-oxopentan-2-yl]carbamate; structure illustrated below), was also diluted 10-fold to a working concentration of 1 mM in DMSO. The epoxyketones 12 and epoxomicin positive control (Selleck Chemicals) were also diluted to working stocks of 1 mM in DMSO. Proteasome samples (99 μL) were added to a white, opaque 96-well plate (PerkinElmer, OptiPlate-96) and treated with 1 μL of compound solutions (10 μM final concentration). Samples were incubated for 1 h at 37° C. then analyzed for fluorescence (λ^ex 350 nm, λ^em 440 nm) on a plate reader (Molecular Devices Spectramax M3). Three separate assay kits were used as biological replicates. Data were normalized to the average signal from the no-inhibitor negative control. […]

SMILES: CC(C)CCCCC(=O)N[C@@H](CO)C(=O)N[C@@H](CC(C)C)C(=O)[C@@]1(C)CO1 [Compound 12a, N-[(1S)-2-Hydroxy-1-{[(2S)-4-methyl-1-[(2R)-2-methyloxiran-2-yl]-1-oxopentan-2-yl]carbamoyl}ethyl]-6-methylheptanamide]
- IC50 [1]: 0.26 ± 0.05 µM
- IC50 ([2]; read-out: IC50): 0.2 µM
- IC50 ([2]; read-out: log IC50 (converted)): 0.195 µM
- IC50 ([3]; read-out: IC50): 0.23 µM
- IC50 ([3]; read-out: log IC50 (converted)): 0.229 µM
- IC50 ([4]; read-out: IC50): 0.44 µM
- IC50 ([4]; read-out: log IC50 (converted)): 0.407 µM
- inhibition of proteasome activity [5]: at a level comparable to that of epoxomicin
